Measurements: PubChem BioAssay (NCI)
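All cell lines were grown in 96-well plates and treated with compound for 48 hours. GI50: concentration for 50% inhibition of growth. TGI denotes the concentration required for complete inhibition of growth.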

Tests used:
Test in all cases: NCI-60 cell line screen, 48 h
[1] = system: SNB-19 CNS
[2] = system: CAKI-1 renal
[3] = system: RXF 393 renal
[4] = system: HL-60(TB) leukemia
[5] = system: RPMI-8226 leukemia
[6] = system: EKVX NSCLC
[7] = system: M14 melanoma
[8] = system: BT-549 breast
[9] = system: MDA-MB-231 breast
[10] = system: MDA-MB-435
[11] = system: HS 578T breast
[12] = system: UACC-62 melanoma
[13] = system: HT29 colon
[14] = system: T-47D breast
[15] = system: SK-OV-3 ovarian
[16] = system: K-562 leukemia
[17] = system: OVCAR-5 ovarian
[18] = system: SK-MEL-5 melanoma
[19] = system: SF-539 CNS
[20] = system: SNB-75 CNS
[21] = system: KM12 colon
[22] = system: PC-3 prostate
[23] = system: MDA-MB-468 breast
[24] = system: NCI-H23 lung
[25] = system: HOP-92 NSCLC
[26] = system: COLO 205 colon
[27] = system: NCI-H226 lung
[28] = system: LOX IMVI melanoma
[29] = system: HCT-116 colon
[30] = system: CCRF-CEM leukemia
[31] = system: IGROV1 ovarian
[32] = system: HCT-15 colon
[33] = system: MALME-3M melanoma
[34] = system: SR leukemia
[35] = system: 786-0 renal
[36] = system: MCF7 breast
[37] = system: NCI-H460 lung
[38] = system: A498 renal
[39] = system: HCC-2998 colon
[40] = system: UO-31 renal
[41] = system: SW-620 colon
[42] = system: SK-MEL-28 melanoma
[43] = system: A549 NSCLC
[44] = system: OVCAR-4 ovarian
[45] = system: OVCAR-8 ovarian
[46] = system: DU-145 prostate
[47] = system: OVCAR-3 ovarian
[48] = system: SF-268 CNS
[49] = system: SK-MEL-2 melanoma
[50] = system: UACC-257 melanoma
[51] = system: ACHN renal
[52] = system: TK-10 renal
[53] = system: NCI/ADR-RES ovarian
[54] = system: HOP-62 NSCLC
[55] = system: U251 CNS
[56] = system: SF-295 CNS
[57] = system: SN12C renal
[58] = system: MOLT-4 leukemia
[59] = system: NCI-H522 lung

In the case of `FC(F)(F)c1cc2c(Cl)ncnc2n1CCN1CCOCC1`, the GI50 [1] is reported as 15.3 µM, the TGI [1] is reported as 32.9 µM and the GI50 [2] is reported as 27.6 µM. For the same compound, the TGI [2] was > 100 µM, the GI50 [3] was 14.9 µM and the TGI [3] was 40.6 µM. It also gave a GI50 [4] of 2.09 µM, a TGI [4] of 5.97 µM and a GI50 [5] of 31.9 µM. For the same compound, the TGI [5] was > 100 µM, the GI50 [6] was 17 µM and the TGI [6] was 94.6 µM. It also gave a GI50 [7] of 11.6 µM, a TGI [7] of 36 µM and a GI50 [8] of 13.6 µM. It also gave a TGI [8] of 28.2 µM, a GI50 [9] of 4.36 µM and a TGI [9] of 18.3 µM. The GI50 [10] was 13.2 µM, the TGI [10] was 29.3 µM and the GI50 [11] was 16.5 µM. It also gave a TGI [11] of 59 µM, a GI50 [12] of 10.8 µM and a TGI [12] of 32.5 µM. The GI50 [13] was 27.3 µM, the TGI [13] was > 100 µM and the GI50 [14] was 38.8 µM. For the same compound, the TGI [14] was > 100 µM, the GI50 [15] was > 100 µM and the TGI [15] was > 100 µM. For the same compound, the GI50 [16] was 3.05 µM, the TGI [16] was 18.7 µM and the GI50 [17] was > 100 µM. The TGI [17] was > 100 µM, the GI50 [18] was 13 µM and the TGI [18] was 29.7 µM. The GI50 [19] was 18.1 µM, the TGI [19] was 42.2 µM and the GI50 [20] was 10.1 µM. For the same compound, the TGI [20] was 22.4 µM, the GI50 [21] was 35.5 µM and the TGI [21] was > 100 µM. It also gave a GI50 [22] of 11.3 µM, a TGI [22] of 36.6 µM and a GI50 [23] of 2.73 µM. The TGI [23] was 10.4 µM, the GI50 [24] was 17.9 µM and the TGI [24] was 74.4 µM. For the same compound, the GI50 [25] was 19 µM, the TGI [25] was 59.8 µM and the GI50 [26] was 26.4 µM. The TGI [26] was > 100 µM, the GI50 [27] was 99 µM and the TGI [27] was > 100 µM. It also gave a GI50 [28] of 1.75 µM, a TGI [28] of 3.4 µM and a GI50 [29] of 4.63 µM. For the same compound, the TGI [29] was > 100 µM, the GI50 [30] was 16.6 µM and the TGI [30] was > 100 µM. The GI50 [31] was 2.54 µM, the TGI [31] was 7.67 µM and the GI50 [32] was 3.3 µM. It also gave a TGI [32] of 17.7 µM, a GI50 [33] of 22.1 µM and a TGI [33] of 67.3 µM. It also gave a GI50 [34] of 2.85 µM, a TGI [34] of 12.6 µM and a GI50 [35] of 37 µM. For the same compound, the TGI [35] was > 100 µM, the GI50 [36] was 25 µM and the TGI [36] was > 100 µM. For the same compound, the GI50 [37] was 23.2 µM, the TGI [37] was > 100 µM and the GI50 [38] was > 100 µM. The TGI [38] was > 100 µM, the GI50 [39] was 2.23 µM and the TGI [39] was 5.11 µM. The GI50 [40] was 2.53 µM, the TGI [40] was 8.99 µM and the GI50 [41] was 10.5 µM. It also gave a TGI [41] of 56.1 µM, a GI50 [42] of 13.6 µM and a TGI [42] of 32.9 µM. For the same compound, the GI50 [43] was > 100 µM, the TGI [43] was > 100 µM and the GI50 [44] was 33 µM. For the same compound, the TGI [44] was > 100 µM, the GI50 [45] was 8.45 µM and the TGI [45] was 29.4 µM. The GI50 [46] was 28.9 µM, the TGI [46] was > 100 µM and the GI50 [47] was 19.4 µM. The TGI [47] was 43.7 µM, the GI50 [48] was 14.8 µM and the TGI [48] was 33.8 µM. The GI50 [49] was 17.4 µM, the TGI [49] was 33.4 µM and the GI50 [50] was 10.5 µM. The TGI [50] was 30.2 µM, the GI50 [51] was 7.65 µM and the TGI [51] was > 100 µM. For the same compound, the GI50 [52] was > 100 µM, the TGI [52] was > 100 µM and the GI50 [53] was 30.5 µM. The TGI [53] was > 100 µM, the GI50 [54] was 38.9 µM and the TGI [54] was > 100 µM. For the same compound, the GI50 [55] was 14.8 µM, the TGI [55] was 38.8 µM and the GI50 [56] was 24.7 µM. The TGI [56] was > 100 µM, the GI50 [57] was 19.7 µM and the TGI [57] was > 100 µM. It also gave a GI50 [58] of 5.71 µM and a TGI [58] of 29 µM.
With `CCC[Se]C(=O)c1ccc(C(=O)[Se]CCC)s1` the GI50 [1] was < 0.01 µM, the TGI [1] was 0.131 µM and the GI50 [2] was < 0.0112 µM. For the same compound, the TGI [2] was 0.175 µM, the GI50 [3] was < 0.01 µM and the TGI [3] was 0.0644 µM. For the same compound, the GI50 [4] was < 0.01 µM, the TGI [4] was 0.662 µM and the GI50 [5] was 0.3 µM. For the same compound, the TGI [5] was 2 µM, the GI50 [6] was < 0.0246 µM and the TGI [6] was 0.0821 µM. The GI50 [7] was < 0.01 µM, the TGI [7] was < 0.0211 µM and the GI50 [9] was < 0.01 µM. For the same compound, the TGI [9] was < 0.02 µM, the GI50 [10] was < 0.01 µM and the TGI [10] was 0.0199 µM. The GI50 [11] was < 0.01 µM, the TGI [11] was 0.411 µM and the GI50 [12] was 0.0225 µM. The TGI [12] was 0.556 µM, the GI50 [13] was < 0.01 µM and the TGI [13] was 0.112 µM. The GI50 [14] was 1.03 µM, the TGI [14] was 10.7 µM and the GI50 [15] was 0.0395 µM. The TGI [15] was 0.837 µM, the GI50 [16] was 0.0414 µM and the TGI [16] was 21.4 µM. The GI50 [17] was < 0.0162 µM, the TGI [17] was 0.455 µM and the GI50 [18] was < 0.0491 µM. The TGI [18] was 0.159 µM, the GI50 [19] was < 0.0107 µM and the TGI [19] was < 0.0218 µM. For the same compound, the GI50 [20] was < 0.0336 µM, the TGI [20] was 3.07 µM and the GI50 [21] was 0.0276 µM. It also gave a TGI [21] of 1.3 µM, a GI50 [22] of 0.0224 µM and a TGI [22] of 2.89 µM. For the same compound, the GI50 [23] was < 0.018 µM, the TGI [23] was 0.075 µM and the GI50 [24] was 0.0197 µM. For the same compound, the TGI [24] was 0.114 µM, the GI50 [25] was < 0.0189 µM and the GI50 [26] was 0.639 µM. For the same compound, the TGI [26] was 2.1 µM, the GI50 [28] was < 0.0131 µM and the TGI [28] was < 0.0346 µM. For the same compound, the GI50 [30] was 1.66 µM, the TGI [30] was 16.1 µM and the GI50 [31] was < 0.0131 µM. It also gave a TGI [31] of 0.234 µM, a GI50 [32] of 0.0546 µM and a TGI [32] of 0.217 µM. The GI50 [33] was < 0.0352 µM, the TGI [33] was 0.118 µM and the GI50 [59] was 0.943 µM. It also gave a TGI [59] of 2.77 µM, a GI50 [34] of 0.0386 µM and a TGI [34] of 10.3 µM. For the same compound, the GI50 [35] was 0.172 µM, the TGI [35] was 2.25 µM and the GI50 [36] was < 0.01 µM. For the same compound, the TGI [36] was 0.17 µM, the GI50 [37] was < 0.01 µM and the TGI [37] was 0.0104 µM. It also gave a GI50 [38] of 0.0635 µM, a TGI [38] of 0.917 µM and a GI50 [39] of 0.239 µM. The TGI [39] was 1.84 µM, the GI50 [40] was < 0.02 µM and the TGI [40] was 0.341 µM. For the same compound, the GI50 [41] was 0.0573 µM, the TGI [41] was 0.32 µM and the GI50 [42] was < 0.01 µM. The TGI [42] was 0.0294 µM, the GI50 [43] was < 0.01 µM and the TGI [43] was 0.085 µM. The GI50 [44] was 2.87 µM, the TGI [44] was 30 µM and the GI50 [45] was < 0.01 µM. For the same compound, the TGI [45] was 0.0457 µM, the GI50 [46] was 0.0955 µM and the TGI [46] was 1.3 µM. The GI50 [47] was 0.103 µM, the TGI [47] was 0.37 µM and the GI50 [48] was < 0.011 µM. For the same compound, the TGI [48] was 0.0675 µM, the GI50 [49] was 0.0408 µM and the TGI [49] was 1.14 µM. For the same compound, the GI50 [50] was 0.0587 µM, the TGI [50] was 1.16 µM and the GI50 [51] was 0.11 µM. For the same compound, the TGI [51] was 1.22 µM, the GI50 [52] was 0.121 µM and the TGI [52] was 1.32 µM. The GI50 [53] was < 0.01 µM, the GI50 [54] was < 0.012 µM and the TGI [54] was 0.0633 µM. The GI50 [55] was < 0.0106 µM, the TGI [55] was 0.139 µM and the GI50 [56] was < 0.0144 µM. The TGI [56] was < 0.0385 µM, the GI50 [57] was < 0.01 µM and the GI50 [58] was < 0.01 µM. It also gave a TGI [58] of 5.1 µM.
